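48-hour exposure; five concentrations; linearly interpolated endpoints. GI50: concentration for 50% inhibition of growth.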 Calls of active or inactive are those of the source. No stated cut-off is given here; in the data, active = GI50 up to about 1.1 µM and inactive = higher.
Tests used:
Assay in all cases: NCI anticancer screen, dose series, 48 h
SR = test system: SR
A498 = test system: A498
K562 = test system: K562
U-251 = test system: U-251
COLO 205 = test system: COLO 205
SNB-19 = test system: SNB-19
UACC-257 = test system: UACC-257
LOX IMVI = test system: LOX IMVI
EKVX = test system: EKVX
MDA-MB-231 = test system: MDA-MB-231
Hs-578T = test system: Hs-578T
NCI-H522 = test system: NCI-H522
Malme-3M = test system: Malme-3M
MDA-N = test system: MDA-N
MOLT-4 = test system: MOLT-4
HT-29 = test system: HT-29
NCI-H23 = test system: NCI-H23
SW-620 = test system: SW-620
HOP-62 = test system: HOP-62
OVCAR-5 = test system: OVCAR-5
HOP-92 = test system: HOP-92
A549 = test system: A549
HCT-15 = test system: HCT-15
OVCAR-8 = test system: OVCAR-8
HCC 2998 = test system: HCC 2998
SK-MEL-2 = test system: SK-MEL-2
CAKI-1 = test system: CAKI-1
SNB-75 = test system: SNB-75
CCRF-CEM = test system: CCRF-CEM
SF-295 = test system: SF-295
IGROV-1 = test system: IGROV-1
UO-31 = test system: UO-31
MCF7 = test system: MCF7
ACHN = test system: ACHN
NCI-H226 = test system: NCI-H226
SF-539 = test system: SF-539
HL-60 = test system: HL-60
HCT-116 = test system: HCT-116
786-0 = test system: 786-0
NCI/ADR-RES = test system: NCI/ADR-RES
SF-268 = test system: SF-268
PC-3 = test system: PC-3
OVCAR-4 = test system: OVCAR-4
SK-MEL-5 = test system: SK-MEL-5
UACC-62 = test system: UACC-62
TK-10 = test system: TK-10
RPMI-8226 = test system: RPMI-8226
KM12 = test system: KM12
OVCAR-3 = test system: OVCAR-3
SN12C = test system: SN12C
T47D = test system: T47D
SK-OV-3 = test system: SK-OV-3
NCI-H460 = test system: NCI-H460
DU-145 = test system: DU-145
RXF 393 = test system: RXF 393
SK-MEL-28 = test system: SK-MEL-28
MDA-MB-435 = test system: MDA-MB-435
M14 = test system: M14

## CCNc1cc2c3c(c1)CCCN3CCC2
SR
  GI50: 4.22 µM (inactive)
A498
  GI50: 23.3 µM (inactive)
K562
  GI50: 4.01 µM (inactive)
U-251
  GI50: 12.3 µM (inactive)
COLO 205
  GI50: 12.1 µM (inactive)
SNB-19
  GI50: 16 µM (inactive)
UACC-257
  GI50: 19.7 µM (inactive)
LOX IMVI
  GI50: 3.1 µM (inactive)
EKVX
  GI50: 4.03 µM (inactive)
MDA-MB-231
  GI50: 6.93 µM (inactive)
Hs-578T
  GI50: 25.6 µM (inactive)
NCI-H522
  GI50: 21 µM (inactive)
Malme-3M
  GI50: 19.3 µM (inactive)
MDA-N
  GI50: 3.1 µM (inactive)
MOLT-4
  GI50: 16.9 µM (inactive)
HT-29
  GI50: 6.78 µM (inactive)
NCI-H23
  GI50: 6.31 µM (inactive)
SW-620
  GI50: 21.3 µM (inactive)
HOP-62
  GI50: 14.6 µM (inactive)
OVCAR-5
  GI50: 21.6 µM (inactive)
HOP-92
  GI50: 12.6 µM (inactive)
A549
  GI50: 17.9 µM (inactive)
HCT-15
  GI50: 19.6 µM
OVCAR-8
  GI50: 21.2 µM (inactive)
HCC 2998
  GI50: 33 µM (inactive)
SK-MEL-2
  GI50: 15.3 µM (inactive)
CAKI-1
  GI50: 31.6 µM (inactive)
SNB-75
  GI50: 18.1 µM (inactive)
CCRF-CEM
  GI50: 2.38 µM (inactive)
SF-295
  GI50: 18.2 µM (inactive)
IGROV-1
  GI50: 15.6 µM (inactive)
UO-31
  GI50: 41.9 µM (inactive)
MCF7
  GI50: 40.7 µM (inactive)
ACHN
  GI50: 19.6 µM (inactive)
NCI-H226
  GI50: 20.4 µM (inactive)
SF-539
  GI50: 20.9 µM (inactive)
HL-60
  GI50: 11.8 µM (inactive)
HCT-116
  GI50: 6.67 µM (inactive)
786-0
  GI50: 9.66 µM (inactive)
NCI/ADR-RES
  GI50: 21 µM (inactive)
SF-268
  GI50: 16.9 µM (inactive)
PC-3
  GI50: 16.7 µM (inactive)
OVCAR-4
  GI50: 13 µM (inactive)
SK-MEL-5
  GI50: 13.7 µM (inactive)
UACC-62
  GI50: 17.7 µM (inactive)
TK-10
  GI50: 31.8 µM (inactive)
RPMI-8226
  GI50: 4.46 µM (inactive)
KM12
  GI50: 15.7 µM (inactive)
OVCAR-3
  GI50: 2.32 µM (inactive)
SN12C
  GI50: 2.87 µM (inactive)
T47D
  GI50: 18.1 µM (inactive)
SK-OV-3
  GI50: 20 µM (inactive)
NCI-H460
  GI50: 15.1 µM (inactive)
DU-145
  GI50: 28.1 µM (inactive)
RXF 393
  GI50: 72.8 µM (inactive)
SK-MEL-28
  GI50: 31.3 µM (inactive)
MDA-MB-435
  GI50: 3.44 µM (inactive)
M14
  GI50: 26.4 µM (inactive)

## CCOC(=O)N(C)C1(c2ccccc2)CCN(CCCC(=O)c2ccc(F)cc2)CC1
SR
  GI50: 19.8 µM (inactive)
A498
  GI50: 36.5 µM (inactive)
K562
  GI50: 23.7 µM (inactive)
U-251
  GI50: 61.4 µM (inactive)
COLO 205
  GI50: 15.4 µM (inactive)
SNB-19
  GI50: 0.0647 µM (active)
UACC-257
  GI50: 20.3 µM (inactive)
LOX IMVI
  GI50: 20.9 µM (inactive)
EKVX
  GI50: > 100 µM (inactive)
MDA-MB-231
  GI50: 39.4 µM (inactive)
Hs-578T
  GI50: 49 µM (inactive)
NCI-H522
  GI50: 87.9 µM (inactive)
Malme-3M
  GI50: 15.3 µM (inactive)
MDA-N
  GI50: 21.7 µM (inactive)
MOLT-4
  GI50: 31.8 µM (inactive)
HT-29
  GI50: 19.7 µM (inactive)
NCI-H23
  GI50: 68.7 µM (inactive)
SW-620
  GI50: 0.349 µM (active)
HOP-62
  GI50: 38.5 µM (inactive)
OVCAR-5
  GI50: 49 µM (inactive)
HOP-92
  GI50: 34.8 µM (inactive)
A549
  GI50: 92.3 µM (inactive)
HCT-15
  GI50: 35.1 µM
OVCAR-8
  GI50: > 100 µM (inactive)
HCC 2998
  GI50: 21 µM (inactive)
SK-MEL-2
  GI50: 21.5 µM (inactive)
CAKI-1
  GI50: 2.16 µM (inactive)
CCRF-CEM
  GI50: 31.7 µM (inactive)
SF-295
  GI50: 42.4 µM (inactive)
IGROV-1
  GI50: > 100 µM (inactive)
UO-31
  GI50: 0.0148 µM (active)
MCF7
  GI50: 33.4 µM (inactive)
ACHN
  GI50: 84.1 µM (inactive)
NCI-H226
  GI50: 35.4 µM (inactive)
SF-539
  GI50: 28.6 µM (inactive)
HL-60
  GI50: 26.5 µM (inactive)
HCT-116
  GI50: 32.2 µM (inactive)
786-0
  GI50: 33 µM (inactive)
NCI/ADR-RES
  GI50: 47.8 µM (inactive)
SF-268
  GI50: 90.4 µM (inactive)
PC-3
  GI50: 36.8 µM (inactive)
OVCAR-4
  GI50: 40.2 µM (inactive)
SK-MEL-5
  GI50: 17.3 µM (inactive)
UACC-62
  GI50: 42.1 µM (inactive)
TK-10
  GI50: 45.3 µM (inactive)
RPMI-8226
  GI50: 27.4 µM (inactive)
KM12
  GI50: 30.5 µM (inactive)
OVCAR-3
  GI50: 44 µM (inactive)
SN12C
  GI50: 83.4 µM (inactive)
T47D
  GI50: 61.1 µM (inactive)
SK-OV-3
  GI50: > 100 µM (inactive)
NCI-H460
  GI50: 35.5 µM (inactive)
DU-145
  GI50: > 100 µM (inactive)
RXF 393
  GI50: 57.8 µM (inactive)
SK-MEL-28
  GI50: 21 µM (inactive)
MDA-MB-435
  GI50: 23.9 µM (inactive)
M14
  GI50: 17.2 µM (inactive)

Source: ChEMBL document CHEMBL1201862, “PubChem BioAssay data set” (2004)
